Our source for the IC50, Ratio IC50 and inhibition values is ChEMBL document CHEMBL4364338, “Probing the side chain tolerance for inhibitors of the CD95/PLCγ1 interaction” (Bioorg Med Chem Lett, 2019).

Calls of active or inactive are those of the source. The calls are words filed in the database; no cut-off is given here.

A short description of experiment [1]: Inhibition of CD95 (unknown origin)/PLCgamma-1 SH3 domain (unknown origin) protein-protein interaction transfected in HEK293T cells incubated for 1 hr by renilla luciferase based protein-fragment complementation assay. In kind it is cell-based, Homo sapiens.
The nature of experiment [2]: Inhibition of CD95 (unknown origin)/FADD (unknown origin) protein-protein interaction transfected in HEK293T cells incubated for 1 hr by renilla luciferase based protein-fragment complementation assay. The class given is cell-based, Homo sapiens.
Experiment [3] is filed under the species Homo sapiens. Put plainly: Selectivity index, ratio of IC50 for CD95 (unknown origin)/FADD (unknown origin) protein-protein interaction transfected in HEK293T cells to IC50 for CD95 (unknown origin)/PLCgamma-1 SH3 domain (unknown origin) protein-protein interaction transfected in HEK293T cells. The class given is cell-based.
For experiment [4], the species on record is Homo sapiens. Kind of experiment: Inhibition of CD95 (unknown origin)/PLCgamma-1 SH3 domain Q805A mutant (unknown origin) protein-protein interaction transfected in HEK293T cells incubated for 1 hr by renilla luciferase based protein-fragment complementation assay. In kind it is cell-based.
The species named for experiment [5] is Homo sapiens. Put plainly: Inhibition of CD95 (unknown origin)/PLCgamma-1 SH3 domain D808A mutant (unknown origin) protein-protein interaction transfected in HEK293T cells incubated for 1 hr by renilla luciferase based protein-fragment complementation assay. The class given is cell-based.

For the compound `CCC(=O)N(CCN)[C@@H](CCCNC(=N)N)C(=O)NCCN(C(=O)CCCCCN)[C@@H](Cc1c[nH]cn1)C(=O)NCCN(C(=O)CCCCNC(=N)N)[C@@H](CCCCN)C(N)=O`, the values for the IC50 in experiment [1] and in experiment [2] were 61 µM and more than 5000 µM, respectively. In addition, in the experiment listed under Homo sapiens [3], the Ratio IC50 was more than 100.

For `N=C(N)NCCCCC(=O)N(CCNC(=O)[C@H](Cc1c[nH]cn1)N(CCNC(=O)[C@H](CCCNC(=N)N)N(CCN)C(=O)CCS)C(=O)CCCCCN)[C@@H](CCCCN)C(N)=O`, the IC50 was 75 µM in experiment [1] and 3800 µM in experiment [2]. Moreover, the Ratio IC50 in the experiment filed under Homo sapiens [3] worked out at 50.

Turning to `N=C(N)NCCC[C@@H](C(=O)NCCN(C(=O)CCCCCN)[C@@H](Cc1c[nH]cn1)C(=O)NCCN(C(=O)CCCCCC(N)=O)[C@@H](CCCCN)C(N)=O)N(CCN)C(=O)CCS`, the IC50 in experiment [1] and in experiment [2] was more than 5000 µM throughout.

For the compound H-TCRKHRK-OH, the figures for the IC50 in experiment [1] and in experiment [2] were 35 µM and more than 5000 µM, respectively. Further, the Ratio IC50 in the experiment filed under Homo sapiens [3] was more than 100.

On to `N=C(N)NCCCCC(=O)N(CCNC(=O)[C@H](Cc1c[nH]cn1)N(CCNC(=O)[C@H](CCCNC(=N)N)N(CCN)C(=O)CCO)C(=O)CCCCCN)[C@@H](CCCCN)C(N)=O`, for which the half-inhibitory concentration (IC50) was 79 µM in experiment [1] and 3930 µM in experiment [2]. The Ratio IC50 in the experiment filed under Homo sapiens [3] came out at 50.

For the compound `N=C(N)NCCCCC(=O)N(CCNC(=O)[C@H](Cc1c[nH]cn1)N(CCNC(=O)[C@H](Cc1c[nH]c2ccccc12)N(CCN)C(=O)CCS)C(=O)CCCCCN)[C@@H](CCCCN)C(N)=O`, the values for the half-maximal inhibitory concentration (IC50) in experiment [1] and in experiment [2] were 85 µM and 173 µM, respectively. In the experiment listed under Homo sapiens [3], the Ratio IC50 amounted to 2.

Consider `C[C@@H](O)[C@H](N)C(=O)NCCN(C(=O)CCS)[C@@H](CCCNC(=N)N)C(=O)NCCN(C(=O)CCCCCN)[C@@H](Cc1c[nH]cn1)C(=O)NCCN(C(=O)CCCCNC(=N)N)[C@@H](CCCCN)C(N)=O`, for which the inhibition entry in the experiment filed under Homo sapiens [4] and in the experiment listed under Homo sapiens [5] was “inactive” in each case. Also, the concentration for half-maximal inhibition (IC50) was 77 µM in experiment [1] and more than 5000 µM in experiment [2]. In the experiment filed under Homo sapiens [3], the Ratio IC50 is more than 100.

Take `N=C(N)NCCC[C@@H](C(=O)NCCN(C(=O)CCCCCN)[C@@H](Cc1c[nH]cn1)C(=O)NCCN(C(=O)CCc1ccc(N)cc1)[C@@H](CCCCN)C(N)=O)N(CCN)C(=O)CCS`: the half-inhibitory concentration (IC50) was 856 µM in experiment [1] and more than 5000 µM in experiment [2]. Besides, the Ratio IC50 in the experiment filed under Homo sapiens [3] is more than 10.

Take `N=C(N)NCCC[C@@H](C(=O)NCCN(C(=O)CCCCCN)[C@@H](Cc1c[nH]cn1)C(=O)NCCN(C(=O)CCc1c[nH]c2ccccc12)[C@@H](CCCCN)C(N)=O)N(CCN)C(=O)CCS`: the values for the IC50 in experiment [1] and in experiment [2] were 343 µM and 2650 µM, respectively. Further, in the experiment filed under Homo sapiens [3], the Ratio IC50 is 8.

With `N=C(N)NCCCCC(=O)N(CCNC(=O)[C@H](Cc1c[nH]cn1)N(CCNC(=O)[C@H](Cc1cccnc1)N(CCN)C(=O)CCS)C(=O)CCCCCN)[C@@H](CCCCN)C(N)=O`, the IC50 came to 907 µM in experiment [1] and 4250 µM in experiment [2]. In addition, the Ratio IC50 in the experiment filed under Homo sapiens [3] came to 4.

In the case of `N=C(N)NCCC[C@@H](C(=O)NCCN(C(=O)CCCCCN)[C@@H](Cc1c[nH]cn1)C(=O)NCCN(C(=O)CCc1ccc(O)cc1)[C@@H](CCCCN)C(N)=O)N(CCN)C(=O)CCS`, the IC50 in experiment [1] was 655 µM; in experiment [2], more than 5000 µM. The Ratio IC50 in the experiment filed under Homo sapiens [3] was more than 10.

What is called IC50 is the point on the concentration scale where inhibition reaches its midpoint.
